These results are taken from patent US7223759B2, “Antibacterial 3,5-diaminopiperidine-substituted aromatic and heteroaromatic compounds” (Anadys Pharmaceuticals, Inc., priority 2003, dated 2007).

Where only a bound is given, the exact number is not on record here.

In the first assay the test system is Escherichia coli (ATCC25922) or Staphylococcus aureus (ATCC25923). Kind of assay: Antibacterial MIC, microdilution method in Mueller-Hinton medium. It counts as cell-based. The note with it: Escherichia coli, 18 h, MIC in E. coli or S. aureus; two-fold serial dilutions 64 to 0.5 μg/ml in duplicate; 18 hours of incubation at 35° C.; read-out: Potency (MIC). The procedure, abridged: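 Read after 18 h incubation at 35° C, MIC is the lowest compound level that blocked growth. Compounds were tested in duplicate over 64–0.5 μg/ml two-fold dilutions using Mueller-Hinton microdilution per NCCLS standard.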
For orientation: Broth dilution looks for growth in wells or tubes with falling amounts of substance.
Broadly, the MIC is the lowest concentration found to suppress growth. On to `NC1CCN(c2nc(N3C[C@H](N)C[C@H](N)C3)nc(N3C[C@H](N)C[C@H](N)C3)n2)CC1` [1-(4,6-Bis-((3R,5S)-3,5-diamino-piperidin-1-yl)-[1,3,5]triazin-2-yl)-piperidine-3-carboxylic aciddiethylamide], for which the minimal inhibitory concentration (MIC) was > 64 µg/mL.
With `Cc1ccc(S(=O)(=O)N(Cc2ccccc2)c2ccc(Nc3nc(C4CCCCC4)nc(N4CCCCC4)n3)cc2O)cc1.Cl` [N-{4-[4-((3S,5R)-3-Amino-5-hydroxy-piperidin-1-yl)-6-((3R,5S)-3,5-diamino-piperidin-1-l)-[1,3,5]triazin-2-ylamino]-2-hydroxy-phenyl}-N-benzyl-4-methyl-benzenesulfonamide], the minimum inhibitory concentration (MIC) was < 64 µg/mL.
Consider `Cc1cc(Br)ccc1Nc1nc(N2CCCCC2)nc(N2CCCCC2)n1.Cl` [4-[4,6-Bis-((3R,5S)-3,5-diamino-piperidin-1-yl)-[1,3,5]triazin-2-ylammino]-benzoic acid methyl ester], for which the minimal inhibitory concentration (MIC) is > 64 µg/mL.
For `N[C@@H]1C[C@H](N)CN(c2nc(Nc3ccc(Br)cc3)nc(N3C[C@H](N)C[C@H](N)C3)n2)C1` [N-(4-bromo-phenyl)-4,6-Bis-((3R,5S)-3,5-diamino-piperidin-1-yl)-[1,3,5]triazine-2-amine], the minimal inhibitory concentration (MIC) is > 64 µg/mL.
As for `Cl.O=C(CC(=O)N1CCC(n2c(=O)[nH]c3ccccc32)CC1)c1ccc(Nc2nc(N3CCCCC3)nc(N3CCCCC3)n2)cc1` [N-(4-{3-oxo-3-[4-(2-oxo-2,3-dihydro-benzoimidazol-1-yl)-piperidin-1-yl]-propionly}-phenyl)-4,6-Bis-((3R,5S)-3,5-diamino-piperidin-1-yl)-[1,3,5]triazine-2-amine], the minimal inhibitory concentration (MIC) is > 64 µg/mL.
Turning to `COc1nc(Nc2ccc3c(C)cc(=O)oc3c2)nc(N2CCCCC2)n1.Cl` [7-[4-((3R,5S)-3,5-DSiamino-piperidin-1-yl)-6-methoxy-[1,3,5]triazin-2-ylamino]-4-methyl-chromen-2-one], the MIC is > 64 µg/mL.
On to `Cl.Oc1cccc2ccc(Nc3nc(N4CCCCC4)nc(N4CCCCC4)n3)nc12` [N-(8-hydroxy-quinolin-2-yl)-4,6-Bis-((3R,5S)-3,5-diamino-piperidin-1-yl)-[1,3,5]triazine-2-ammine], for which the MIC is > 64 µg/mL.
Turning to `Cc1ccc(C(=O)Nc2ccc(Nc3nc(N(CCN)CCN)nc(N4CCCCC4)n3)cc2O)cc1.Cl` [N-{4-[4-[Bis-(2-amino-ethyl)-amino]-6-((3R,5S)-3,5-diamino-piperidin-1-yl-[1,3,5]triazin-2-ylamino]-2-hydroxy-phenyl}-4-methyl-benzamide], the minimum inhibitory concentration (MIC) is < 64 µg/mL.

Still in this assay, the particulars now being: Escherichia coli, 18 h, read-out: Potency (MIC).
Turning to `NC[C@@H]1C[C@@H](O)CN1c1nc(Nc2ccc(NC(=O)c3ccc4ccccc4c3O)cc2)nc(N2C[C@H](N)C[C@H](N)C2)n1` [1-Hydroxy-naphthalene-2-carboxylicacid {4-[4-((2S,4R)-2-aminomethyl-4-hydroxy-pyrrolidin-1-yl)-6-((3R,5S)-3,5-diamino-piperidin-1-yl)-[1,3,5]triazin-2-ylamino]-phenyl}-amide], the minimal inhibitory concentration (MIC) is < 64 µg/mL.
Still for that read-out and setting: next, `Cc1ccc(S(=O)(=O)N(Cc2ccccc2)c2ccc(Nc3nc(N4C[C@H](N)C[C@H](N)C4)nc(N4CCC[C@@H](O)C4)n3)c(O)c2)cc1` [N-Benzyl-N-{4-[4-((3R,5S)-3,5-diamino-piperidin-1-yl)-6-((R)-3-hydroxy-piperidin-1-yl)-[1,3,5]triazin-2-ylamino]-3-hydroxy-phenyl}-4-methyl-benzenesulfonamide]: < 64 µg/mL; `Cc1ccc(C(=O)Nc2ccc(Nc3nc(N4C[C@H](N)C[C@H](N)C4)nc(N4CCC[C@@H](O)C4)n3)cc2O)cc1` [N-{4-[4-((3R,5S)-3,5-Diamino-piperidin-1-yl)-6-((R)-3-hydroxy-piperidin-1-yl)-[1,3,5]triazin-2-ylamino]-2-hydroxy-phenyl}-4-methyl-benzamide]: > 64 µg/mL.
Still for that read-out and setting: the value for `N[C@@H]1C[C@H](N)CN(c2nc(Nc3ccc(C(=O)Nc4ccc(S(=O)(=O)Nc5ccc6cn[nH]c6c5)cc4)c(O)c3)nc(N3C[C@H](N)C[C@H](N)C3)n2)C1` [N-(3-hydroxy-4-[4-(1H-indazol-6-ylsulfamoyl)-phenylcarbamoyl]-phenyl)-4,6-Bis-((3R,5S)-3,5-diamino-piperidin-1-yl)-[1,3,5]triazine-2-amine] was < 64 µg/mL; that for `N[C@@H]1C[C@H](N)CN(c2nc(Nc3ccc(C(=O)Nc4ccc(F)c(Cl)c4)c(O)c3)nc(N3C[C@H](N)C[C@H](N)C3)n2)C1` [N-[4-(3-chloro-4-fluoro-phenylcarbamoyl)-3-hydroxy-phenyl]-4,6-Bis-((3R,5S)-3,5-diamino-piperidin-1-yl)-[1,3,5]triazine-2-amine] was < 16 µg/mL; that for `N[C@@H]1C[C@H](N)CN(c2nc(Nc3ccc(NC(=O)c4ccc(Cl)cc4O)c(Cl)c3)nc(N3C[C@H](N)C[C@H](N)C3)n2)C1` [N-[3-chloro-4-(4-chloro-2-hydroxy-benzoylamino)-phenyl]-4,6-Bis-((3R,5S)-3,5-diamino-piperidin-1-yl)-[1,3,5]triazine-2-amine] was < 16 µg/mL.
The same measure, in the same setting: the value for `COc1ccc(Nc2nc(N3C[C@H](N)C[C@H](N)C3)nc(N3C[C@H](N)C[C@H](N)C3)n2)cc1` [N-(4-methoxy-phenyl)-4,6-Bis-((3R,5S)-3,5-diamino-piperidin-1-yl)-[1,3,5]triazine-2-amine] was > 64 µg/mL.
For the compound `N[C@@H]1C[C@H](N)CN(c2nc(NNC3=NCCCN3)nc(N3C[C@H](N)C[C@H](N)C3)n2)C1` [N-(4,6-Bis-((3R,5S)-3,5-diamino-piperidin-1-yl)-[1,3,5]triazin-2-yl)-N′-(1,4,5,6-tetrahydro-pyrimidin-2-yl)-hydrazine], the minimal inhibitory concentration (MIC) is > 64 µg/mL.
As for `N[C@@H]1C[C@H](N)CN(c2nc(Nc3ccc(C(=O)CC(=O)Nc4ccc(F)cc4)cc3)nc(N3C[C@H](N)C[C@H](N)C3)n2)C1` [N-{4-[2-(4-fluoro-phenylcarbamoyl)-acetyl]-phenyl}-4,6-Bis-((3R,5S)-3,5-diamino-piperidin-1-yl)-[1,3,5]triazine-2-amine], the MIC is < 16 µg/mL.
Same read-out and setting: the value for `N[C@@H]1C[C@H](N)CN(c2nc(NCCNc3ccc([N+](=O)[O-])cn3)nc(N3C[C@H](N)C[C@H](N)C3)n2)C1` [N-[2-(5-nitro-pyridin-2-ylamino)-ethyl]-4,6-Bis-((3R,5S)-3,5-diamino-piperidin-1-yl)-[1,3,5]triazine-2-amine] was > 64 µg/mL; that for `N[C@@H]1C[C@H](N)CN(c2nc(Nc3ccc(C(=O)Nc4ccc(Cl)c(Cl)c4)c(O)c3)nc(N3C[C@H](N)C[C@H](N)C3)n2)C1` [N-[4-(3,4-dichloro-phenylcarbamoyl)-3-hydroxy-phenyl]-4,6-Bis-((3R,5S)-3,5-diamino-piperidin-1-yl)-[1,3,5]triazine-2-amine] was < 16 µg/mL; that for `N[C@@H]1C[C@H](N)CN(c2nc(Nc3ccc(NC(=O)C=Cc4ccccc4)c(O)c3)nc(N3C[C@H](N)C[C@H](N)C3)n2)C1` [N-[3-hydroxy-4-(3-phenyl-acryloylamino)-phenyl]-4,6-Bis-((3R,5S)-3,5-diamino-piperidin-1-yl)-[1,3,5]triazine-2-amine] was < 16 µg/mL.
The same measure, in the same setting: the value for `C[C@H](Nc1nc(N2C[C@H](N)C[C@H](N)C2)nc(N2C[C@H](N)C[C@H](N)C2)n1)c1cccc2ccccc12` [N-((S)-1-naphthalen-1-yl-ethyl)-4,6-Bis-((3R,5S)-3,5-diamino-piperidin-1-yl)-[1,3,5]triazine-2-amine] was > 64 µg/mL; that for `N[C@@H]1C[C@H](N)CN(c2nc(Nc3ccc(C(=O)Nc4ccc(Cl)cc4)c(O)c3)nc(N3C[C@H](N)C[C@H](N)C3)n2)C1` [N-[4-(4-chloro-phenylcarbamoyl)-3-hydroxy-phenyl]-4,6-Bis-((3R,5S)-3,5-diamino-piperidin-1-yl)-[1,3,5]triazine-2-amine] was < 64 µg/mL.
On to `Cc1ccc(C(=O)Nc2ccc(Nc3nc(NC4CCNCC4)nc(N4C[C@H](N)C[C@H](N)C4)n3)cc2O)cc1` [N-{4-[4-((3R,5S)-3,5-Diamino-piperidin-1-yl)-6-(piperidin-4-ylamino)-[1,3,5]triazin-2-ylamino]-2-hydroxy-phenyl}-4-methyl-benzamide], for which the MIC is < 16 µg/mL.
The same measure, in the same setting: the value for `N[C@@H]1C[C@H](N)CN(c2nc(Nc3ccc(C(=O)Nc4cccc(OC(F)(F)F)c4)c(O)c3)nc(N3C[C@H](N)C[C@H](N)C3)n2)C1` [N-[3-hydroxy-4-(3-trifluoromethoxy-phenylcarbamoyl)-phenyl]-4,6-Bis-((3R,5S)-3,5-diamino-piperidin-1-yl)-[1,3,5]triazine-2-amine] was < 16 µg/mL.
Turning to `N[C@@H]1C[C@H](N)CN(c2nc(Nc3cccc(NC(=O)c4ccc(O)cc4O)c3)nc(N3C[C@H](N)C[C@H](N)C3)n2)C1` [N-[3-(2,4-dihydroxy-benzoylamino)-phenyl]-4,6-Bis-((3R,5S)-3,5-diamino-piperidin-1-yl)-[1,3,5]triazine-2-amine], the minimal inhibitory concentration (MIC) is < 16 µg/mL.
On to `N[C@@H]1C[C@H](N)CN(c2nc(Nc3cccc(NC(=O)c4cccc([N+](=O)[O-])c4O)c3)nc(N3C[C@H](N)C[C@H](N)C3)n2)C1` [N-[3-(2-hydroxy-3-nitro-benzoylamino)-phenyl]-4,6-Bis-((3R,5S)-3,5-diamino-piperidin-1-yl)-[1,3,5]triazine-2-amine], for which the minimum inhibitory concentration (MIC) is < 16 µg/mL.
Same read-out and setting: the value for `Cc1ccccc1NNc1nc(N2C[C@H](N)C[C@H](N)C2)nc(N2C[C@H](N)C[C@H](N)C2)n1` [N-(4,6-Bis-((3R,5S)-3,5-diamino-piperidin-1-yl)-[1,3,5]triazin-2-yl)-N′-o-Tolyl-hydrazine] was < 64 µg/mL.

Still in this assay, the particulars now being: MIC in E. coli or S. aureus; two-fold serial dilutions 64 to 0.5 μg/ml in duplicate; 18 hours of incubation at 35° C.
Turning to “N-(4-phenylazo-phenyl)-4,6-Bis-((3R,5S)-3,5-0diamino-piperidin-1-yl)-[1,3,5]triazine-2-amine”, the “Potency (MIC)” value is listed as “++ (++ means MIC<16 μg/ml in E. coli or S. aureus)”.
